Legend:
[1] = tested on: Zymoseptoria tritici; assay: Leaf blotch of wheat (SEPTTR) disease control on wheat seedlings; assay type: in vivo; set-up: key to SEPTTR 1DP, HV activity at 100 ppm (% control rating) / SEPTTR 3DC, HV activity at 100 ppm (% control rating) / SEPTTR disease control, 1DP / SEPTTR disease control, 3DC / SEPTTR 1DP disease control rating, HV activity / SEPTTR 3DC disease control rating, HV activity / SEPTTR 3DC, LV activity at 125.1 g/H (% Control rating) / SEPTTR 1DP, LV activity at 125.1 g/H (% Control rating) / SEPTTR 1DP disease control rating, LV activity at 125.1 g/H / SEPTTR 3DC disease control rating, LV activity at 125.1 g/H / SEPTTR 3DC disease control rating, HV activity at 100 ppm / SEPTTR 1DP disease control rating, HV activity at 100 ppm / HV activity at 100 ppm SEPTTR 3DC (disease control rating) / HV activity at 100 ppm SEPTTR 1DP (disease control rating) / LV activity at 125.1 g/H SEPTTR 1DP (disease control rating) / LV activity at 125.1 g/H SEPTTR 3DC (disease control rating): A: > 80; B: ≤ 80; C: Not Tested; D: No Activity Observed in the Reported Assay; settings: for SEPTTR 1DP disease control rating, HV activity at 100 ppm / SEPTTR 3DC disease control rating, HV activity at 100 ppm: high volume application; for SEPTTR 1DP disease control rating, HV activity at 100 ppm / SEPTTR 1DP disease control rating, LV activity at 125.1 g/H: 1 day protectant; for SEPTTR 3DC disease control rating, HV activity at 100 ppm / SEPTTR 3DC disease control rating, LV activity at 125.1 g/H: 3 day curative; for SEPTTR 1DP disease control rating, LV activity at 125.1 g/H / SEPTTR 3DC disease control rating, LV activity at 125.1 g/H / SEPTTR 1DP, LV activity at 125.1 g/H (% Control rating) / SEPTTR 3DC, LV activity at 125.1 g/H (% Control rating) / LV activity at 125.1 g/H SEPTTR 1DP (disease control rating) / LV activity at 125.1 g/H SEPTTR 3DC (disease control rating): low volume application; for SEPTTR 1DP, LV activity at 125.1 g/H (% Control rating) / LV activity at 125.1 g/H SEPTTR 1DP (disease control rating): 1 Day Protectant; for SEPTTR 3DC, LV activity at 125.1 g/H (% Control rating) / LV activity at 125.1 g/H SEPTTR 3DC (disease control rating): 3 Day Curative; for LV activity at 125.1 g/H SEPTTR 1DP (disease control rating) / LV activity at 125.1 g/H SEPTTR 3DC (disease control rating): wheat leaf blotch
[2] = tested on: Puccinia triticina; assay: Wheat brown rust (PUCCRT) disease control on wheat seedlings; assay type: in vivo; set-up: key to PUCCRT 3DC, HV activity at 100 ppm (% control rating) / PUCCRT disease control, 3DC / PUCCRT 1DP disease control rating, HV activity / PUCCRT 3DC disease control rating, HV activity / PUCCRT 3DC, LV activity at 125.1 g/H (% Control rating) / PUCCRT 1DP, LV activity at 125.1 g/H (% Control rating) / PUCCRT 3DC disease control rating, LV activity at 125.1 g/H / PUCCRT 1DP disease control rating, LV activity at 125.1 g/H / PUCCRT 3DC disease control rating, HV activity at 100 ppm / PUCCRT 1DP disease control rating, HV activity at 100 ppm / HV activity at 100 ppm PUCCRT 3DC (disease control rating) / LV activity at 125.1 g/H PUCCRT 1DP (disease control rating) / LV activity at 125.1 g/H PUCCRT 3DC (disease control rating): A: > 80; B: ≤ 80; C: Not Tested; D: No Activity Observed in the Reported Assay; settings: for PUCCRT 1DP disease control rating, HV activity at 100 ppm / PUCCRT 3DC disease control rating, HV activity at 100 ppm: high volume application; for PUCCRT 1DP disease control rating, HV activity at 100 ppm / PUCCRT 1DP disease control rating, LV activity at 125.1 g/H: 1 day protectant; for PUCCRT 3DC disease control rating, HV activity at 100 ppm / PUCCRT 3DC disease control rating, LV activity at 125.1 g/H: 3 day curative; for PUCCRT 1DP disease control rating, LV activity at 125.1 g/H / PUCCRT 3DC disease control rating, LV activity at 125.1 g/H / PUCCRT 1DP, LV activity at 125.1 g/H (% Control rating) / PUCCRT 3DC, LV activity at 125.1 g/H (% Control rating) / LV activity at 125.1 g/H PUCCRT 1DP (disease control rating) / LV activity at 125.1 g/H PUCCRT 3DC (disease control rating): low volume application; for PUCCRT 1DP, LV activity at 125.1 g/H (% Control rating) / LV activity at 125.1 g/H PUCCRT 1DP (disease control rating): 1 Day Protectant; for PUCCRT 3DC, LV activity at 125.1 g/H (% Control rating) / LV activity at 125.1 g/H PUCCRT 3DC (disease control rating): 3 Day Curative; for LV activity at 125.1 g/H PUCCRT 1DP (disease control rating) / LV activity at 125.1 g/H PUCCRT 3DC (disease control rating): wheat brown rust

SMILES: COc1ccnc(C(=O)NC(Cc2ccccc2)C(=O)OC(C)C(Oc2ccccc2)C(C)C)c1O (mixture of isomers) [Cmpd 812]
- SEPTTR 1DP disease control rating, HV activity at 100 ppm [1]: B (≤ 80)
- SEPTTR 3DC disease control rating, HV activity at 100 ppm [1]: B (≤ 80)
- PUCCRT 1DP disease control rating, HV activity at 100 ppm [2]: A (> 80)
- PUCCRT 3DC disease control rating, HV activity at 100 ppm [2]: A (> 80)

SMILES: CCC(CC)C(Oc1cccc(F)c1)C(C)OC(=O)C(CC(C)C)NC(=O)c1nccc(OC)c1OC(C)=O (centres unmarked) [Cmpd 685]
- SEPTTR 1DP disease control rating, LV activity at 125.1 g/H [1]: D
- SEPTTR 3DC disease control rating, LV activity at 125.1 g/H [1]: B (≤ 80)
- PUCCRT 1DP disease control rating, LV activity at 125.1 g/H [2]: B (≤ 80)
- PUCCRT 3DC disease control rating, LV activity at 125.1 g/H [2]: D

SMILES: CCC(CC)[C@@H](Oc1ccc(-c2ccccc2)cc1)[C@H](C)OC(=O)[C@H](C)NC(=O)c1nccc(OC)c1OC(C)=O [Cmpd 607]
- SEPTTR 1DP, LV activity at 125.1 g/H (% Control rating) [1]: A (> 80)
- SEPTTR 3DC, LV activity at 125.1 g/H (% Control rating) [1]: B (≤ 80)
- PUCCRT 1DP, LV activity at 125.1 g/H (% Control rating) [2]: A (> 80)
- PUCCRT 3DC, LV activity at 125.1 g/H (% Control rating) [2]: B (≤ 80)

SMILES: CCC(CC)C(Oc1cccc(F)c1)C(C)OC(=O)C(C)NC(=O)c1nccc(OC)c1OC(C)=O (centres unmarked) [Cmpd 673]
- SEPTTR 1DP disease control rating, LV activity at 125.1 g/H [1]: B (≤ 80)
- SEPTTR 3DC disease control rating, LV activity at 125.1 g/H [1]: A (> 80)
- PUCCRT 1DP disease control rating, LV activity at 125.1 g/H [2]: A (> 80)
- PUCCRT 3DC disease control rating, LV activity at 125.1 g/H [2]: B (≤ 80)

SMILES: COc1ccnc(C(=O)NC(C)C(=O)OC(C)COCC(C)C)c1OCOC(C)=O (centres unmarked) [Cmpd 533]
- SEPTTR 1DP, LV activity at 125.1 g/H (% Control rating) [1]: D
- SEPTTR 3DC, LV activity at 125.1 g/H (% Control rating) [1]: A (> 80)
- PUCCRT 1DP, LV activity at 125.1 g/H (% Control rating) [2]: D
- PUCCRT 3DC, LV activity at 125.1 g/H (% Control rating) [2]: A (> 80)

SMILES: COc1ccnc(C(=O)NC(C)C(=O)OC(C)COc2ccccc2)c1OC(C)=O (centres unmarked) [Cmpd 524]
- SEPTTR 1DP, LV activity at 125.1 g/H (% Control rating) [1]: B (≤ 80)
- SEPTTR 3DC, LV activity at 125.1 g/H (% Control rating) [1]: B (≤ 80)
- PUCCRT 1DP, LV activity at 125.1 g/H (% Control rating) [2]: D
- PUCCRT 3DC, LV activity at 125.1 g/H (% Control rating) [2]: B (≤ 80)

SMILES: COc1ccnc(C(=O)NC(C)C(=O)OC(C)C(Oc2ccccc2)c2ccccc2)c1OC(=O)C(C)C (centres unmarked) [Cmpd 871]
- SEPTTR 1DP disease control rating, LV activity at 125.1 g/H [1]: A (> 80)
- SEPTTR 3DC disease control rating, LV activity at 125.1 g/H [1]: B (≤ 80)
- PUCCRT 1DP disease control rating, LV activity at 125.1 g/H [2]: D
- PUCCRT 3DC disease control rating, LV activity at 125.1 g/H [2]: D

SMILES: COc1ccnc(C(=O)N[C@@H](C)C(=O)O[C@@H](C)[C@H](Oc2ccc(C)cc2)C2CC2)c1O [Cmpd 1010]
- SEPTTR 1DP disease control rating, HV activity at 100 ppm [1]: B (≤ 80)
- SEPTTR 3DC disease control rating, HV activity at 100 ppm [1]: B (≤ 80)
- PUCCRT 1DP disease control rating, HV activity at 100 ppm [2]: A (> 80)
- PUCCRT 3DC disease control rating, HV activity at 100 ppm [2]: A (> 80)

SMILES: CCC(CC)[C@@H](Oc1cccc(-c2ccccc2)c1)[C@H](C)OC(=O)[C@@H](NC(=O)c1nccc(OC)c1OC(C)=O)C(C)C [Cmpd 664]
- SEPTTR 1DP disease control rating, LV activity at 125.1 g/H [1]: D
- SEPTTR 3DC disease control rating, LV activity at 125.1 g/H [1]: D
- PUCCRT 1DP disease control rating, LV activity at 125.1 g/H [2]: A (> 80)
- PUCCRT 3DC disease control rating, LV activity at 125.1 g/H [2]: D

SMILES: C=CC[C@@H](Oc1ccc(F)cc1F)[C@H](C)OC(=O)[C@H](C)NC(=O)c1nccc(OC)c1OCOC(C)=O [Cmpd 1075]
- LV activity at 125.1 g/H SEPTTR 1DP (disease control rating) [1]: D
- LV activity at 125.1 g/H SEPTTR 3DC (disease control rating) [1]: B (≤ 80)
- LV activity at 125.1 g/H PUCCRT 1DP (disease control rating) [2]: A (> 80)
- LV activity at 125.1 g/H PUCCRT 3DC (disease control rating) [2]: B (≤ 80)

SMILES: CCOc1ccnc(C(=O)N[C@@H](C)C(=O)O[C@@H](C)[C@@H](CC(C)C)Oc2cccc(F)c2)c1OC(C)=O [Cmpd 1107]
- LV activity at 125.1 g/H SEPTTR 1DP (disease control rating) [1]: D
- LV activity at 125.1 g/H SEPTTR 3DC (disease control rating) [1]: D
- LV activity at 125.1 g/H PUCCRT 1DP (disease control rating) [2]: B (≤ 80)
- LV activity at 125.1 g/H PUCCRT 3DC (disease control rating) [2]: B (≤ 80)

Reference: patent US20180000085A1, “USE OF PICOLINAMIDE COMPOUNDS WITH FUNGICIDAL ACTIVITY” (DOW AGROSCIENCES LLC, priority 2014, published 2018)
